Results on 8 compounds are retold here after ChEMBL document CHEMBL5465560, “Selectivity Literature for EUbOPEN Chemogenomic Library” (2024).

Assay [1] deals with T1, Serine/threonine-protein kinase DCLK2 (Homo sapiens) (UniProt Q8N568).
T1 sequence (whole entry): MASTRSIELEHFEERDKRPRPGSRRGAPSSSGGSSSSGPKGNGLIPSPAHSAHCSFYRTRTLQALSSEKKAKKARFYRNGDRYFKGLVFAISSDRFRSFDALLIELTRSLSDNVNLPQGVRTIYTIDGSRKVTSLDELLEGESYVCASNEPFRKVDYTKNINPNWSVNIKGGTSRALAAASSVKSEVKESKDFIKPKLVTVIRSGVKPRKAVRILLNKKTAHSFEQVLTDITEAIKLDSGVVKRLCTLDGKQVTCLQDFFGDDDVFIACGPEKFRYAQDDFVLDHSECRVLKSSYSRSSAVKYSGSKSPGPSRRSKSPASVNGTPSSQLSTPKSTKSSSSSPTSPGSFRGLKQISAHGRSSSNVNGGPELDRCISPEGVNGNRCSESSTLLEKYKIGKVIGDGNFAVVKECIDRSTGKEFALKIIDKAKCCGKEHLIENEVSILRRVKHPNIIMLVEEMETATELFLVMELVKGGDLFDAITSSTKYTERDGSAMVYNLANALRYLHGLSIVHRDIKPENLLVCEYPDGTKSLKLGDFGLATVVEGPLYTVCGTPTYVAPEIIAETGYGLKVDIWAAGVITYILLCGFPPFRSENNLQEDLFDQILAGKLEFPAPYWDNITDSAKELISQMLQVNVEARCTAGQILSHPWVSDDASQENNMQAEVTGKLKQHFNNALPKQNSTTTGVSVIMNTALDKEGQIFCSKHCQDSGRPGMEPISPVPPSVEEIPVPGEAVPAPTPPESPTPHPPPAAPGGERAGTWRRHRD
Kind of assay: Selectivity interaction (Kinase panel (Z-LYTE Assay)) EUB0001632a DCLK2. As to conditions: at 10 µM.

The target of assay [2] is Serine/threonine-protein kinase Chk2 (Homo sapiens) (UniProt O96017). As to the kind of experiment: Selectivity interaction (Kinase panel (Z-LYTE Assay)) EUB0001632a CHEK2. The note with it: at 10 µM.
The target of assay [3] is Vascular endothelial growth factor receptor 2 (Homo sapiens, UniProt P35968). Kind of assay: Selectivity interaction (Kinase panel (Eurofins)) EUB0001564a KDR. As to conditions: at 1 µM.
Assay [4] deals with cAMP-dependent protein kinase catalytic subunit alpha (Homo sapiens, UniProt P17612). As to the kind of experiment: Selectivity interaction (KinomeScan (DiscoverX)) EUB0000595a PRKACA. As to conditions: at 10 µM.
In assay [5] the target is T2, Tyrosine-protein kinase ZAP-70 (Homo sapiens) (UniProt P43403).
T2 sequence (whole entry): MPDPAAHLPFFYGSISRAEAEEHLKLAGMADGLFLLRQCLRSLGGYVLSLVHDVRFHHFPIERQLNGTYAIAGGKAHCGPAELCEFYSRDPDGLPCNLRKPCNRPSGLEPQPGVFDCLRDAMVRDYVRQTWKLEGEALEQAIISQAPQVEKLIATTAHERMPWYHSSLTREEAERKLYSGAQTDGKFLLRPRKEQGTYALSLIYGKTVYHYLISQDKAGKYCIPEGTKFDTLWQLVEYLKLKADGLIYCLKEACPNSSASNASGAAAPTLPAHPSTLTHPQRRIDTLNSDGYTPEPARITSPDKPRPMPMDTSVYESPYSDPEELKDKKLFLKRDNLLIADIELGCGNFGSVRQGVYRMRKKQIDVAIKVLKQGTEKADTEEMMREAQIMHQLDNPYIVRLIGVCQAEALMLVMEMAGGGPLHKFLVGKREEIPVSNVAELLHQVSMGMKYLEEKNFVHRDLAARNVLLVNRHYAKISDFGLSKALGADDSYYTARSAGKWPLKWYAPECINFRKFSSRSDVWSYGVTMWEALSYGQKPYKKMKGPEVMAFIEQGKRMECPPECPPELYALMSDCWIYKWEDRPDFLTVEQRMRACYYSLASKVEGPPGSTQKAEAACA
As to conditions: at 10 µM.

The target of assay [6] is T3, Serine/threonine-protein kinase ULK1 (Homo sapiens) (UniProt O75385).
T3 sequence (whole entry): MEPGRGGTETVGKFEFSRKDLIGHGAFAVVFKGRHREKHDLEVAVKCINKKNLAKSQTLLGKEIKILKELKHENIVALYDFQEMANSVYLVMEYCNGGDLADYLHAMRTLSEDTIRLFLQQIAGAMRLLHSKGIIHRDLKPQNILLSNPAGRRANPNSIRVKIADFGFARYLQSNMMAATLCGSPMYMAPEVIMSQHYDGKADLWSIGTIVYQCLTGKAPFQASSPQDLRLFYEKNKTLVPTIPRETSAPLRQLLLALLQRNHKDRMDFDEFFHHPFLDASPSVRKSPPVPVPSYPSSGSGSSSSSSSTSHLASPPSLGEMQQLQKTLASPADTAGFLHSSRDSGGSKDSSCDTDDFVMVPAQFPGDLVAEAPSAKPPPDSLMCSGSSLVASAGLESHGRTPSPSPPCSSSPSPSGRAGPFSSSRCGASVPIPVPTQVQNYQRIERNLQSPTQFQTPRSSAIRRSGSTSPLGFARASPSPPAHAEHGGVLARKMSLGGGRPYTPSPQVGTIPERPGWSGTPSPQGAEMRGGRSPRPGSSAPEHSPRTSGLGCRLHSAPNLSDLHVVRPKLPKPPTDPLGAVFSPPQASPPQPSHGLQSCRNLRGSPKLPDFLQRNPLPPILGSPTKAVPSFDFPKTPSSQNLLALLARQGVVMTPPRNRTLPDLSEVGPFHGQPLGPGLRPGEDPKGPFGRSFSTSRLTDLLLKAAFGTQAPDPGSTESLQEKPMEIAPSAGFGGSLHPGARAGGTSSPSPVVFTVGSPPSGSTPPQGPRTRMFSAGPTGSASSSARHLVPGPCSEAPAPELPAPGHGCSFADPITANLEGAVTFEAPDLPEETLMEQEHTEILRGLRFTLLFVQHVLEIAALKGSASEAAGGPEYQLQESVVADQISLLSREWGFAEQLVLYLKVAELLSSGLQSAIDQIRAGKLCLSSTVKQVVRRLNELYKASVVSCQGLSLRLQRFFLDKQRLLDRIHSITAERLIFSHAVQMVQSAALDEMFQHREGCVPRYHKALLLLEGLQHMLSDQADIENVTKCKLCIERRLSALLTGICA
Kind of assay: Selectivity interaction (KinomeScan (DiscoverX)) EUB0000666a ULK1. As to conditions: at 10 µM.

In assay [7] the target is Serine/threonine-protein kinase 25 (Homo sapiens) (UniProt O00506). Kind of assay: Selectivity interaction (KinomeScan (DiscoverX)) EUB0001049a STK25. As to conditions: at 1 µM.
Assay [8] deals with Cyclin-dependent kinase 18 (Homo sapiens) (UniProt Q07002). Kind of assay: Selectivity interaction (KinomeScan (DiscoverX)) EUB0001049a CDK18. As to conditions: at 1 µM.
In assay [9] the target is LIM domain kinase 1 (Homo sapiens) (UniProt P53667). Kind of assay: Selectivity interaction (Upstate Kinase Profiler service (Millipore)) EUB0000056c LIMK1. The note with it: at 1 µM.
The target in assay [10] is Bromodomain-containing protein 8 (Homo sapiens) (UniProt Q9H0E9). As to the kind of experiment: Selectivity interaction (Human bromodomain panel (DSF assay)) EUB0000233b BRD8. Background: Differential scanning fluorimetry follows unfolding on heating by fluorescence.
Bromodomain-containing protein 8 (Homo sapiens), sequence (Q9H0E9 whole entry): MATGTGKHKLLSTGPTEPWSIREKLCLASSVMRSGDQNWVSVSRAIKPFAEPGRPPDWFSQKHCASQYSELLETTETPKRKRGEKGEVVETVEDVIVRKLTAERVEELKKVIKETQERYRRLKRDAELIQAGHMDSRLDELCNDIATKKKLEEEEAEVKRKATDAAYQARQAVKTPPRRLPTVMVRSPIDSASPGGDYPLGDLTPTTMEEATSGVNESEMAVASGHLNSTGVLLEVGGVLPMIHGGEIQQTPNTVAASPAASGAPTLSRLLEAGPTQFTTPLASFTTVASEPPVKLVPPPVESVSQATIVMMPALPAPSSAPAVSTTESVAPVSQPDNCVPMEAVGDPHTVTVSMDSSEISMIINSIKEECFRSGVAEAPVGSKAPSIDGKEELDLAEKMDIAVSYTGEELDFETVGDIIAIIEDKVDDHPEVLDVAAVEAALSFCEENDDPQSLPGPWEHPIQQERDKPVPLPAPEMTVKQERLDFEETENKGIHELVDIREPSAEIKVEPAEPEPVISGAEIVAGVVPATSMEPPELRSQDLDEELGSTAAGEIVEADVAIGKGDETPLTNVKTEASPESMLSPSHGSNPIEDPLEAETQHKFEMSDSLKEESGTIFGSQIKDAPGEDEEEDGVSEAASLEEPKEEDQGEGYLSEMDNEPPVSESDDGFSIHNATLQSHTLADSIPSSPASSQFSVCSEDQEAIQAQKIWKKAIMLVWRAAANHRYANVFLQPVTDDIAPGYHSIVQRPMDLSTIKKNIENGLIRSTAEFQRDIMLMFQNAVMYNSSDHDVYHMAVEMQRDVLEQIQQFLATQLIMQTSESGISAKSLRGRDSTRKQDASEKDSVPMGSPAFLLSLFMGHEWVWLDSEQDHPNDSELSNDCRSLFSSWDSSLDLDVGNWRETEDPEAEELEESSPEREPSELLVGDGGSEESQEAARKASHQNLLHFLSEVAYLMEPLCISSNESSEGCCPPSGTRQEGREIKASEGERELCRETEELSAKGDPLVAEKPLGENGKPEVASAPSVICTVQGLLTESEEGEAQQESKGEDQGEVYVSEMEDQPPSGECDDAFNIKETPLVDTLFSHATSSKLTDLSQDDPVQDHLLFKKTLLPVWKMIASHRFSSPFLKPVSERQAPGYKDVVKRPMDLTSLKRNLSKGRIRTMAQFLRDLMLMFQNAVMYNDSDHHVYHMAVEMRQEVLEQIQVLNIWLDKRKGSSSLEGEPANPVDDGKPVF

LIM domain kinase 1 (Homo sapiens), sequence (P53667 whole entry, looked up, the tested form may be a part): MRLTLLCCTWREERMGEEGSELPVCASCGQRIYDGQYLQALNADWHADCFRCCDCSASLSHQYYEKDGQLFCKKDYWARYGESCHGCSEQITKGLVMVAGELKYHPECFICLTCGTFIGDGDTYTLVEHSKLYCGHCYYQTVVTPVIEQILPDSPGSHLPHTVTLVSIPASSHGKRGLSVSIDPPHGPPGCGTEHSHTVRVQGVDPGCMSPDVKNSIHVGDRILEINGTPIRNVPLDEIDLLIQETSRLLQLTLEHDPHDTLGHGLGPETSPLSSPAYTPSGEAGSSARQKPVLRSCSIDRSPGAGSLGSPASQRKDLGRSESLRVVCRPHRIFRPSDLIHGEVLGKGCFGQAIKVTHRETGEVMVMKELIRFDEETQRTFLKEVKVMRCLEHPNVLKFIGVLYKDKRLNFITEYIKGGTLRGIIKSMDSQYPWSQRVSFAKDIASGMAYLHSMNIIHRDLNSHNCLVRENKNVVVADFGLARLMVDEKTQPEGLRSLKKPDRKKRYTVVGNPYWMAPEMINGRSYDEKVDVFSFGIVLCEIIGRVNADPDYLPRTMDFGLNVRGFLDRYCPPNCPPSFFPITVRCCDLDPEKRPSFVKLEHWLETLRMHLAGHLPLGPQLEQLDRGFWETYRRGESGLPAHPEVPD
Cyclin-dependent kinase 18 (Homo sapiens), sequence (Q07002 whole entry, the tested form may be a part): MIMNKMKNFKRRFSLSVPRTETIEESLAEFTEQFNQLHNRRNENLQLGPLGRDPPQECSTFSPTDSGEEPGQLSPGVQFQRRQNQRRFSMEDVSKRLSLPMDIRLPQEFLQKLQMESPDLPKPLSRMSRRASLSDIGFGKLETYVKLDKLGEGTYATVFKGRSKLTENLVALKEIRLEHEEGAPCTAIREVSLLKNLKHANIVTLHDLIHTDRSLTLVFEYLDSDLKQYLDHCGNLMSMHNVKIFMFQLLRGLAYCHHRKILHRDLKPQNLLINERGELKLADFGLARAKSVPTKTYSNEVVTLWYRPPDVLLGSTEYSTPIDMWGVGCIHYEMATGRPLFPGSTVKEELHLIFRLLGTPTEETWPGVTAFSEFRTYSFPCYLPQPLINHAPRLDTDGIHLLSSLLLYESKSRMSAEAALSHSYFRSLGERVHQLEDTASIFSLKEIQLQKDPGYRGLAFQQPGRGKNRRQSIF
Serine/threonine-protein kinase 25 (Homo sapiens), sequence (O00506 whole entry, looked up): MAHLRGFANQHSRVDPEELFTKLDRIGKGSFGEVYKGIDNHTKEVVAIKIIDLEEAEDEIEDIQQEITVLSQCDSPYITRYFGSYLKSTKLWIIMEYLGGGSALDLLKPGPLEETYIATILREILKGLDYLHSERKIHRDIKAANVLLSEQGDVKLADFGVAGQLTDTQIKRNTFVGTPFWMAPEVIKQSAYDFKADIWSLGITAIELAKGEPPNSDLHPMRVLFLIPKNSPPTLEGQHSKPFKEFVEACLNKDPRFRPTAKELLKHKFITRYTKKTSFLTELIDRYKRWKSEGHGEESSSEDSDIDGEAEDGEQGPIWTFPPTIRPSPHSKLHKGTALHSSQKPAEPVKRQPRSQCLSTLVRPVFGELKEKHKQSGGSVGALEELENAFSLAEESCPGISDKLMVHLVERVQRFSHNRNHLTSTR
Vascular endothelial growth factor receptor 2, sequence (P35968 whole entry): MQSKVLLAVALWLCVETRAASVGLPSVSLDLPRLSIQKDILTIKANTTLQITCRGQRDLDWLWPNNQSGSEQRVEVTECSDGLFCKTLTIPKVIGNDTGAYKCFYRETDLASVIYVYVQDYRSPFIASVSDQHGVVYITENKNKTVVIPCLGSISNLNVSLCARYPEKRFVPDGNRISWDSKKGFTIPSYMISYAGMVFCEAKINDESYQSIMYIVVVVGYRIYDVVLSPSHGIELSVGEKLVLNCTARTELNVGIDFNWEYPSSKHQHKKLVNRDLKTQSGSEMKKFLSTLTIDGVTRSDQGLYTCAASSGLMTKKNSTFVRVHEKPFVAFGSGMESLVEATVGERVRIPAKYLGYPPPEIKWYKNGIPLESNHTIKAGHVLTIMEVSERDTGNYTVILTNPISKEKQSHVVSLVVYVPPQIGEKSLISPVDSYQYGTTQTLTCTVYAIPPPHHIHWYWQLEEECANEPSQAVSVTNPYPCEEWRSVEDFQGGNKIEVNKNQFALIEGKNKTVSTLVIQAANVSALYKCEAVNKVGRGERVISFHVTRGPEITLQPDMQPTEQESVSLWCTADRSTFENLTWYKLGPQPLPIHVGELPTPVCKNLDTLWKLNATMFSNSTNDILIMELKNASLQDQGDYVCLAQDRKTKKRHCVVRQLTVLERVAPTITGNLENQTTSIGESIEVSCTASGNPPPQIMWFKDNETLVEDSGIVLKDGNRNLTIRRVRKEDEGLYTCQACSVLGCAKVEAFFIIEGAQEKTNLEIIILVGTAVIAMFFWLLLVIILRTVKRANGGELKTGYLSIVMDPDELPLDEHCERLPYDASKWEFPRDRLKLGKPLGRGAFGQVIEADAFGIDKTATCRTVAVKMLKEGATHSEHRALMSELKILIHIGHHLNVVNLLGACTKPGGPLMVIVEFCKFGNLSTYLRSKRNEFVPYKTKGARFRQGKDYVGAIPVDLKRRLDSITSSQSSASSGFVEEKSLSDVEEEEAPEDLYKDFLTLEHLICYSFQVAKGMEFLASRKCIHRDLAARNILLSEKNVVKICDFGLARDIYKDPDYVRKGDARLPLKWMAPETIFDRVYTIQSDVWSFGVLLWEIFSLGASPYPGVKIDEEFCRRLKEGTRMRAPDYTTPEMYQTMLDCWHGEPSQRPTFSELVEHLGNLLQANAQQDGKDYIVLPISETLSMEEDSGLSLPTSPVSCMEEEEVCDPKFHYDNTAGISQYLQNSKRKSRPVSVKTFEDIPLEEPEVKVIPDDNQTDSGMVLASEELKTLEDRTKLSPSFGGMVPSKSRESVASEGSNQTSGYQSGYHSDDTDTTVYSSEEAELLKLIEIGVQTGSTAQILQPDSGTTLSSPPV
Serine/threonine-protein kinase Chk2 (Homo sapiens), sequence (O96017 whole entry): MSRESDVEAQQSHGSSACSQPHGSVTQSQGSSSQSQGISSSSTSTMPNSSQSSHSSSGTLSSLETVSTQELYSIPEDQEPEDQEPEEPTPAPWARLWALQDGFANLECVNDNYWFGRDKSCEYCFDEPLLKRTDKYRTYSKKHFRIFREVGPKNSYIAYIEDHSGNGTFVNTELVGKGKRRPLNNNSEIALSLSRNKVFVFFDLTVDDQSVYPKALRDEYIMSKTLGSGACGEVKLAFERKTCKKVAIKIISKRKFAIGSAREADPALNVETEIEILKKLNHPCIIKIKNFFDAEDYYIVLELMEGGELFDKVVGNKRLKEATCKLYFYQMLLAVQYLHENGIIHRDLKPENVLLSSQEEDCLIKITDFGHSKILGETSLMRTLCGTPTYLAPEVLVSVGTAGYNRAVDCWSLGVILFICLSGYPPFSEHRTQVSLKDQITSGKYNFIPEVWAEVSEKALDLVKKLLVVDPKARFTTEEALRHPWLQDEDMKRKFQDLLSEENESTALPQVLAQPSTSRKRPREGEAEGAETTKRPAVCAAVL

Consider `Cn1cc(-n2cnc3c(NCc4nc5cc(Cl)c(Cl)cc5[nH]4)nc(N4CCOCC4)nc32)cn1`, for which the % of control in [1] is -1.8%; in assay [2], 12.8%.
In the case of `CC[C@@H](Nc1c(C#N)c(-c2ccc(-c3cccc(C)c3F)cc2)nc2cnccc12)C(=O)O` [BAY-091], in assay [3], the % of inhibition amounted to 50.1%.
For the compound `COCC(=O)NC/C=C/c1ccc2ncnc(Nc3ccc(Oc4ccc(C)nc4)c(C)c3)c2c1` [CP-724714], the % of control in assay [4] was 100%.
On to `CCN(CC)CCCCNc1ncc2cc(-c3cc(OC)cc(OC)c3)c(NC(=O)NC(C)(C)C)nc2n1`, for which the % of control in assay [5] worked out at 100%.
On to `O=C(NOC[C@H](O)CO)c1ccc(F)c(F)c1Nc1ccc(I)cc1F`, for which, in [6], the % of control came to 100%.
For the compound `COc1cc(Nc2nc(C)cc(-c3cnn4nc(OC)ccc34)n2)cc(C(F)(F)F)c1`, the % of control in assay [7] worked out at 91%; in assay [8], 87%.
`Cc1ccc(-c2ccc3c(ccc4sc5c(c43)NC[C@@H](C)NC5=O)n2)cn1`: the % of inhibition in assay [9] came out at 4%.
The compound `CN(C)CCCOc1ccc(-c2cc(NCCCn3cccn3)nc(S(C)(=O)=O)n2)cc1` had a dTM in assay [10] of under 2 K.
